Experimental data from patent US12522602B2, “Derivatives having 2,3-dihydro-1H-indene or 2,3-dihydrobenzofuran moiety or pharmaceutically acceptable salt thereof and pharmaceutical compositions comprising the same” (YUHAN CORPORATION, priority 2019, dated 2026).

Tested on: GM1 production in Jurkat cells
Assay: cells
Type: cell-based
Settings: Homo sapiens, Jurkat, 72 h

Row | Compound | IC50 [nM]
1 | CC(C)Cc1ccc(-c2ccc3c(c2)CC(C)(C)C3NC(=O)O[C@@H]2CN3CCC2CC3)cc1 (stereo partly drawn) [Example 161, (S)-quinuclidin-3-yl (5-(4-isobutylphenyl)-2,2-dimethyl-2,3-dihydro-1H-inden-1-yl)carbamate] | 10.8
2 | COc1c(Cl)ccc(-c2ccc3c(c2)CC(C)(C)C3NC(=O)O[C@@H]2CN3CCC2CC3)c1Cl (stereo partly drawn) [Example 162, (S)-quinuclidin-3-yl (5-(2,4-dichloro-3-methoxyphenyl)-2,2-dimethyl-2,3-dihydro-1H-inden-1-yl)carbamate] | 38.8
3 | CCCc1ccc(-c2ccc3c(c2)CC(C)(C)C3NC(=O)O[C@@H]2CN3CCC2CC3)cc1 (stereo partly drawn) [Example 163, (S)-quinuclidin-3-yl (2,2-dimethyl-5-(4-propylphenyl)-2,3-dihydro-1H-inden-1-yl)carbamate] | 12.2
4 | CCCCc1ccc(-c2ccc3c(c2)CC(C)(C)C3NC(=O)O[C@@H]2CN3CCC2CC3)cc1 (stereo partly drawn) [Example 164, (S)-quinuclidin-3-yl (5-(4-butylphenyl)-2,2-dimethyl-2,3-dihydro-1H-inden-1-yl)carbamate] | 6.5
5 | COc1cccc(-c2ccc3c(c2)CC(C)(C)C3NC(=O)O[C@@H]2CN3CCC2CC3)c1OC (stereo partly drawn) [Example 165, (S)-quinuclidin-3-yl (5-(2,3-dimethoxyphenyl)-2,2-dimethyl-2,3-dihydro-1H-inden-1-yl)carbamate] | 15.6
6 | COc1ccc(-c2ccc3c(c2)CC(C)(C)C3NC(=O)O[C@@H]2CN3CCC2CC3)c(OC)c1 (stereo partly drawn) [Example 166, (S)-quinuclidin-3-yl (5-(2,4-dimethoxyphenyl)-2,2-dimethyl-2,3-dihydro-1H-inden-1-yl)carbamate] | 26.3
7 | COc1ccc(OC)c(-c2ccc3c(c2)CC(C)(C)C3NC(=O)O[C@@H]2CN3CCC2CC3)c1 (stereo partly drawn) [Example 167, (S)-quinuclidin-3-yl (5-(2,5-dimethoxyphenyl)-2,2-dimethyl-2,3-dihydro-1H-inden-1-yl)carbamate] | 3.8
8 | COc1cccc(OC)c1-c1ccc2c(c1)CC(C)(C)C2NC(=O)O[C@@H]1CN2CCC1CC2 (stereo partly drawn) [Example 168, (S)-quinuclidin-3-yl (5-(2,6-dimethoxyphenyl)-2,2-dimethyl-2,3-dihydro-1H-inden-1-yl)carbamate] | 9.6
9 | COc1cc(OC)cc(-c2ccc3c(c2)CC(C)(C)C3NC(=O)O[C@@H]2CN3CCC2CC3)c1 (stereo partly drawn) [Example 169, (S)-quinuclidin-3-yl (5-(3,5-dimethoxyphenyl)-2,2-dimethyl-2,3-dihydro-1H-inden-1-yl)carbamate] | 9.8
10 | CCOc1ccc(-c2ccc3c(c2)CC(C)(C)C3NC(=O)O[C@@H]2CN3CCC2CC3)cc1C(F)(F)F (stereo partly drawn) [Example 170, (S)-quinuclidin-3-yl (5-(4-ethoxy-3-(trifluoromethyl)phenyl)-2,2-dimethyl-2,3-dihydro-1H-inden-1-yl)carbamate] | 13
11 | COc1cc(F)c(-c2ccc3c(c2)CC(C)(C)C3NC(=O)O[C@@H]2CN3CCC2CC3)cc1F (stereo partly drawn) [Example 171, (S)-quinuclidin-3-yl (5-(2,5-difluoro-4-methoxyphenyl)-2,2-dimethyl-2,3-dihydro-1H-inden-1-yl)carbamate] | 17
12 | CC(C)Oc1ccc(F)c(-c2ccc3c(c2)CC(C)(C)C3NC(=O)O[C@@H]2CN3CCC2CC3)c1 (stereo partly drawn) [Example 172, (S)-quinuclidin-3-yl (5-(2-fluoro-5-isopropoxyphenyl)-2,2-dimethyl-2,3-dihydro-1H-inden-1-yl)carbamate] | 48.5
13 | CCCOc1c(C)cc(-c2ccc3c(c2)CC(C)(C)C3NC(=O)O[C@@H]2CN3CCC2CC3)cc1C (stereo partly drawn) [Example 173, (S)-quinuclidin-3-yl (5-(3,5-dimethyl-4-propoxyphenyl)-2,2-dimethyl-2,3-dihydro-1H-inden-1-yl)carbamate] | 34.8
14 | CCOc1c(C)cc(-c2ccc3c(c2)CC(C)(C)C3NC(=O)O[C@@H]2CN3CCC2CC3)cc1C (stereo partly drawn) [Example 174, (S)-quinuclidin-3-yl (5-(4-ethoxy-3,5-dimethylphenyl)-2,2-dimethyl-2,3-dihydro-1H-inden-1-yl)carbamate] | 40.2
15 | CCc1ccccc1-c1ccc2c(c1)CC(C)(C)C2NC(=O)O[C@@H]1CN2CCC1CC2 (stereo partly drawn) [Example 175, (S)-quinuclidin-3-yl (5-(2-ethylphenyl)-2,2-dimethyl-2,3-dihydro-1H-inden-1-yl)carbamate] | 42.8
16 | COc1ccccc1-c1ccc2c(c1)CC(C)(C)C2NC(=O)O[C@@H]1CN2CCC1CC2 (stereo partly drawn) [Example 176, (S)-quinuclidin-3-yl (5-(2-methoxyphenyl)-2,2-dimethyl-2,3-dihydro-1H-inden-1-yl)carbamate] | 27.6
17 | CCOc1ccccc1-c1ccc2c(c1)CC(C)(C)C2NC(=O)O[C@@H]1CN2CCC1CC2 (stereo partly drawn) [Example 177, (S)-quinuclidin-3-yl (5-(2-ethoxyphenyl)-2,2-dimethyl-2,3-dihydro-1H-inden-1-yl)carbamate] | 22.9
18 | CC1(C)Cc2cc(-c3cc(OC(F)(F)F)ccc3Cl)ccc2C1NC(=O)O[C@@H]1CN2CCC1CC2 (stereo partly drawn) [Example 178, (S)-quinuclidin-3-yl (5-(2-chloro-5-(trifluoromethoxy)phenyl)-2,2-dimethyl-2,3-dihydro-1H-inden-1-yl)carbamate] | 26.9
19 | COc1cc(F)ccc1-c1ccc2c(c1)CC(C)(C)C2NC(=O)O[C@@H]1CN2CCC1CC2 (stereo partly drawn) [Example 179, (S)-quinuclidin-3-yl (5-(4-fluoro-2-methoxyphenyl)-2,2-dimethyl-2,3-dihydro-1H-inden-1-yl)carbamate] | 41
20 | COc1ccc(-c2ccc3c(c2)CC(C)(C)C3NC(=O)O[C@@H]2CN3CCC2CC3)c(C)c1 (stereo partly drawn) [Example 180, (S)-quinuclidin-3-yl (5-(4-methoxy-2-methylphenyl)-2,2-dimethyl-2,3-dihydro-1H-inden-1-yl)carbamate] | 28.1
21 | CC(C)(C)OCc1ccc(-c2ccc3c(c2)CC(C)(C)C3NC(=O)O[C@@H]2CN3CCC2CC3)cc1 (stereo partly drawn) [Example 181, (S)-quinuclidin-3-yl (5-(4-(tert-butoxymethyl)phenyl)-2,2-dimethyl-2,3-dihydro-1H-inden-1-yl)carbamate] | 5.5
22 | CC1(C)Cc2cc(-c3cccc(C(F)(F)F)c3Cl)ccc2C1NC(=O)O[C@@H]1CN2CCC1CC2 (stereo partly drawn) [Example 182, (S)-quinuclidin-3-yl (5-(2-chloro-3-(trifluoromethyl)phenyl)-2,2-dimethyl-2,3-dihydro-1H-inden-1-yl)carbamate] | 20.9
23 | CC1(C)Cc2cc(-c3ccc(C(F)(F)F)cc3Cl)ccc2C1NC(=O)O[C@@H]1CN2CCC1CC2 (stereo partly drawn) [Example 183, (S)-quinuclidin-3-yl (5-(2-chloro-4-(trifluoromethyl)phenyl)-2,2-dimethyl-2,3-dihydro-1H-inden-1-yl)carbamate] | 18.6
24 | COc1ccc(-c2ccc3c(c2)CC(C)(C)C3NC(=O)O[C@@H]2CN3CCC2CC3)c(OC)n1 (stereo partly drawn) [Example 184, (S)-quinuclidin-3-yl (5-(2,6-dimethoxypyridin-3-yl)-2,2-dimethyl-2,3-dihydro-1H-inden-1-yl)carbamate] | 40
25 | CC1(C)Cc2cc(-c3ccc(OCC4CC4)nc3)ccc2C1NC(=O)O[C@@H]1CN2CCC1CC2 (stereo partly drawn) [Example 185, (S)-quinuclidin-3-yl (5-(6-(cyclopropylmethoxy)pyridin-3-yl)-2,2-dimethyl-2,3-dihydro-1H-inden-1-yl)carbamate] | 11.1
